These are literature values, as cited in patent EP4209496A1, “NOVEL FLUORESCENT BODIPY COMPOUNDS DISPLAYING ABSORPTION AND EMISSION IN THE NIR REGION” (Université de Strasbourg, priority 2022, dated 2023).

Where two headings read alike, the source gives them in different places.

Turning to `CN(C)c1ccc2nc3ccc(=[N+](C)C)cc-3sc2c1` [Methylene blue], under “solvent: biological serum”, the λem is given as 686 nm and the φf is 10%.
For `CCN1C(=CC=CC=CC=CC2=[N+](CCCCCC(=O)O)c3ccc(S(=O)(=O)O)cc3C2(C)C)C(C)(C)c2cc(S(=O)(=O)[O-])ccc21` [Cy7], for the setting “solvent: PBS buffer”, the λem is reported as 774 nm and the φf is on record as 28%.
For the compound `CC1(C)C(=CC=C2CCCC(C=CC3=[N+](CCCCCC(=O)[O-])c4ccc(S(=O)(=O)[O-])cc4C3(C)C)=C2Oc2ccc(S(=O)(=O)[O-])cc2)N(CCCCS(=O)(=O)[O-])c2ccc(S(=O)(=O)[O-])cc21.[Na+].[Na+].[Na+].[Na+]` [IRDye800CW], where the note is “solvent: biological serum”, the λem is 789 nm and the φf is 12%.
Consider `CC1(C)C(/C=C/C=C/C=C/C=C2\N(CCCCS(=O)(=O)O)c3ccc4ccccc4c3C2(C)C)=[N+](CCCCS(=O)(=O)[O-])c2ccc3ccccc3c21` [Indocyanine green], for which, under “solvent: biological serum”, the λem is given as 822 nm and the φf is reported as 9%.
